According to the NIST ThermoML archive (doi:10.1016/j.jct.2012.06.014):

Experiment: cn = amount concentration of the nth substance listed, in mol/dm3
Details: 298.15 K, 101 kPa, Liquid, Open capillary

O=S(=O)([O-])[O-].O=S(=O)([O-])[O-].O=S(=O)([O-])[O-].[Fe+3].[Fe+3] [ferric sulfate] + O
Details	binary diffusion coefficient [m2/s]
c1 = 0.05	1.48e-09
c1 = 0.06	1.45e-09
c1 = 0.08	1.42e-09
c1 = 0.1	1.41e-09
c1 = 0.15	1.42e-09
c1 = 0.2	1.48e-09
